Assay results taken from US20110144177A1, “Carbamoyl Esters That Inhibit Cholinesterase And Release Pharmacologically Active Agents” (priority 2003, published 2011).

Tests used:
[1] = system: scopolamine-induced amnesia; test: Scopolamine induced amnesia in multiple trial passive (inhibitory) avoidance assay; format: in vivo, rat; conditions: for Performance relative to scopolamine / Performance relative to saline: at the most effective dose, latency to enter dark chamber; for Performance relative to scopolamine: relative to impaired (scopolamine) group; for Performance relative to saline: relative to unimpaired (saline) control group; for most effective dose (the dose that increases the latency the most): i.p. immediately after training, scopolamine 0.75 mg/kg, retention 24 hours later
Description: Inhibitory avoidance is used as a cognitive performance screen because the discrete nature of the task allows for precise pharmacological manipulation and for the ability to selectively study acquisition, consolidation, or recall or learned information.
The inhibitory avoidance apparatus used in these experiments consisted of a light chamber and a dark chamber, which were joined by means of a sliding guillotine door. Training involved placing a rat inside the light chamber with its head facing away from the door. Ten seconds later, the sliding door was opened, and the latency to enter the dark chamber was recorded (100 second maximum). When the rat entered the dark chamber, it received a continuous footshock (0.4 mA) through the metal grid floor until it returned to the light chamber. This sequence of events continued until the rat remained in the light chamber for a period of 100 consecutive seconds or until a maximum of 5 footshocks had been received.
Retention testing, or the ability of the rat to remember the previous events in the inhibitory avoidance apparatus, was conducted 24 hours after the initial testing. The rat was placed into the light chamber with its head facing away from the door. Ten seconds later, the door was opened, allowing the rat access to the dark chamber. No footshock was administered during retention testing. Latency to enter the dark chamber was recorded (900 seconds maximum) and used as a measure of memory.
To assess the effects of the carbamoyl esters on scopolamine-induced amnesia, rats were injected with saline or scopolamine hydrochloride (0.75 mg/kg) 30 minutes prior to training on the Inhibitory Avoidance task. Immediately following the training trial, rats were injected with saline or the carbamoyl ester.
Retention for the task in scopolamine or saline treated rats, was assessed as described above, 24 hours later. No compound (drug) was administered to the rat prior to the retention test and no shock was given during retention testing. For retention testing, the rat was placed into the light chamber. Fifteen seconds later, the door was automatically opened and latency to enter the dark compartment was measured. The latency to enter the dark chamber is the primary measure of memory on this task. Carbamoyl esters were evaluated in this protocol.

[2] = system: total cholinesterase activity in the brain; test: Total cholinesterase activity in brain homogenate after i.p. injection; format: in vivo, Male Wistar rats; conditions: for tolerability of the dose: i.p. dose giving a cholinergic behavioral effect with minimal side effects
Method: Animals were decapitated 3 hours after injection and the brains rapidly removed. The brain tissue was diced into small pieces, placed on ice and immediately homogenized with a Polytron PT1200 (Kinematic AG) in 10 ml ice cold Tris with 0.1% Triton-X and protease inhibitors. The protease inhibitors in the extraction buffer were Antipain (10 μM), Aprotinin (5 TIU/mg protein), Bestatin ([…]), Leupeptin (10 μM) and Pepstatin (1 μM). The final dilution of the homogenate in the final assay mixture was 120-fold.
Total cholinesterase activity was determined by a modification of the colorimetric method of Ellmann, et al. (Biochem. Pharmacol., 7:88-95 (1961)), as described above. Hydrolysis of acetylthiocholine was monitored indirectly by measurement of the formation of the conjugate between thiocholine and DTNB. Optical density at 405 nm was recorded during five (5) minutes employing a microplate spectrophotometer (Polarstar, BMG Labtech), and plotted against time. The initial rates were calculated from the slope of the linear portion of the graph.
Cholinesterase activity was normalized for protein content of the homogenate. Relative cholinesterase activity was calculated as the ratio of normalized cholinesterase activity in a rat treated with a control compound or a carbamoyl ester over normalized cholinesterase activity in saline treated rats.

[3] = biological target: human recombinant acetylcholinesterase (Homo sapiens, UniProt P22303); format: biochemical
Sequence of human recombinant acetylcholinesterase (P22303 32-614): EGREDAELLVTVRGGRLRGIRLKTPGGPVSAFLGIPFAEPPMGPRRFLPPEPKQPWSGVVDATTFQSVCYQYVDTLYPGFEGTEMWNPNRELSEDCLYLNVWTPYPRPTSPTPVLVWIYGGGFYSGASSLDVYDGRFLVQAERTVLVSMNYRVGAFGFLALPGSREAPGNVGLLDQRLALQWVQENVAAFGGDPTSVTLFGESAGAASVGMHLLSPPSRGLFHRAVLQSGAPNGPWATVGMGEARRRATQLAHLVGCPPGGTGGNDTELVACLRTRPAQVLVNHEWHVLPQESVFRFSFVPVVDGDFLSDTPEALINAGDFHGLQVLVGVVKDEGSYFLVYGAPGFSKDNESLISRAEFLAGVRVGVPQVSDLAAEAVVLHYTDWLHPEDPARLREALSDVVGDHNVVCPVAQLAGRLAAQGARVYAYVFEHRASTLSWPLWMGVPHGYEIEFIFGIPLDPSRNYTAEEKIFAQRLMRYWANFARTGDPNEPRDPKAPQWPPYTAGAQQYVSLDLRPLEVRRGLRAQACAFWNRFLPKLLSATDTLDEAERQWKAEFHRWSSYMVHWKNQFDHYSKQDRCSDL

CC(Cc1ccccc1)NC(=O)Oc1cccc([C@H](C)N(C)C)c1 (some centres unmarked) [Compound 3]
Performance relative to scopolamine [1]: 294% | Performance relative to saline [1]: 100% | most effective dose (the dose that increases the latency the most) [1]: 1.4 mg/kg

C[C@H](Cc1ccccc1)N(C)C(=O)Oc1cccc([C@H](C)N(C)C)c1 [Compound 7]
Performance relative to scopolamine [1]: 298% | Performance relative to saline [1]: 64% | most effective dose (the dose that increases the latency the most) [1]: 0.25 mg/kg | ChE inhibition ([2]; 2 mg/kg i.p., brain 3 hours after injection): 38% | Relative ChE Activity ([2]; 2 mg/kg i.p., brain 3 hours after injection, relative to saline treated rats): 62% | tolerability of the dose [2]: well-tolerated

C[C@H](Cc1ccccc1)NC(=O)Oc1cccc([C@H](C)N(C)C)c1 [Compound 9]
Performance relative to scopolamine [1]: 306% | Performance relative to saline [1]: 83% | most effective dose (the dose that increases the latency the most) [1]: 0.1 mg/kg | ChE inhibition ([2]; 8 mg/kg i.p., brain 3 hours after injection): 41% | tolerability of the dose [2]: well-tolerated

C[C@H](Cc1ccccc1)NC(=O)Oc1ccc2c(c1)[C@]1(C)CCN(C)[C@@H]1N2C [Compound 14]
fold increase in enzymatic activity compared to rivastigmine [3]: 10 fold | Performance relative to scopolamine [1]: 186% | Performance relative to saline [1]: 51% | most effective dose (the dose that increases the latency the most) [1]: 0.02 mg/kg

CCN(C)C(=O)Oc1cccc([C@H](C)N(C)C)c1 [Rivastigmine, reference compound]
most effective dose (the dose that increases the latency the most) [1]: 0.25 mg/kg | tolerability of the dose [2]: well-tolerated
